Assay results taken from patent publication US8722670B2, “Selective NR2B antagonists” (Bristol-Myers Squibb Company, priority 2011, dated 2014).

molecular target: T1, hNR2B (Homo sapiens, UniProt Q05586+Q13224); test: Electrophysiology NMDA receptor experiments: two electrode voltage-clamp in Xenopus laevis oocytes, hNR2B IC50; format: cell-based; details: hNR2B activity class, 50 μM glutamate, 30 μM glycine, read-out: Activity
T1 construct: expressed in transfected cells; host or cells: Xenopus laevis oocytes, cRNA-injected
T1 sequence (Q13224 27-1484, other chains not shown): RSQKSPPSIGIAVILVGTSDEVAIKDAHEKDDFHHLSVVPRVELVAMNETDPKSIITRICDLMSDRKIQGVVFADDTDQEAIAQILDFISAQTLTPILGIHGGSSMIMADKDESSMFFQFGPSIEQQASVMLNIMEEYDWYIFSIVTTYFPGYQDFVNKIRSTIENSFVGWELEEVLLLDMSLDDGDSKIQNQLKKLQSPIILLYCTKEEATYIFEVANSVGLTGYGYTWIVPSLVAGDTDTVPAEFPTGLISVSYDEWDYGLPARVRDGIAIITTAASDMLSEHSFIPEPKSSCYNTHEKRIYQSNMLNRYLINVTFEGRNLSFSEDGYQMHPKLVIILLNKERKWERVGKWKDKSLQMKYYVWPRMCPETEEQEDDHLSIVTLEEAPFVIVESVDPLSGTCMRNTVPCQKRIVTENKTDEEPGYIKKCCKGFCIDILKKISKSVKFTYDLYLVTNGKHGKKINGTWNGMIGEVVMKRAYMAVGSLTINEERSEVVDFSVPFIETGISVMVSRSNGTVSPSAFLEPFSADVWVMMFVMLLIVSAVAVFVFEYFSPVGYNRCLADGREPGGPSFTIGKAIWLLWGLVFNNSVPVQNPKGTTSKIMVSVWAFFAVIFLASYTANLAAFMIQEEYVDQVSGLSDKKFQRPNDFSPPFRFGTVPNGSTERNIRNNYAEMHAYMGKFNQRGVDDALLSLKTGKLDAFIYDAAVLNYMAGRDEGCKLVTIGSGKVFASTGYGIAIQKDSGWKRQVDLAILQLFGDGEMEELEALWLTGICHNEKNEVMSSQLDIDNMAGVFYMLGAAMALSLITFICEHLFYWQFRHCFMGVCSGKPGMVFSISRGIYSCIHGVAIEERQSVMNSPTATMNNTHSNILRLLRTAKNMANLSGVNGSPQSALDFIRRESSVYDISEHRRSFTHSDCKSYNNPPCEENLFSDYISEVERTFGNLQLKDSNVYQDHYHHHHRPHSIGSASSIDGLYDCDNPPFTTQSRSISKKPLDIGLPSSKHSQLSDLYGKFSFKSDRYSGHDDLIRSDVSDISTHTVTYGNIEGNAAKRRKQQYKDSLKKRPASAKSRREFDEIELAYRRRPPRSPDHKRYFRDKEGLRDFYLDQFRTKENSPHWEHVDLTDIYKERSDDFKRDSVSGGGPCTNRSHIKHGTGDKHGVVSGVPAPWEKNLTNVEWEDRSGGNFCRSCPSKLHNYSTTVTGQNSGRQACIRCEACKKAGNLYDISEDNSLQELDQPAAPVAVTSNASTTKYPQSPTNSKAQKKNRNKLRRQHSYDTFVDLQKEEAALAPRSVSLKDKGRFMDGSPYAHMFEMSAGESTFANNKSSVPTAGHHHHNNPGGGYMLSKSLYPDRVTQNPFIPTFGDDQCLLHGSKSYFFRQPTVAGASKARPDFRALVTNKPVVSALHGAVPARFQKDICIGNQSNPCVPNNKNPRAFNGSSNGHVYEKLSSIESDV

IC50 [nM]	SMILES
< 200	Fc1cc(Nc2noc(C3CC3c3ccc4[nH]ncc4c3)n2)ccc1OC(F)F (stereo not shown) [Example 238]
< 200	O=c1ccc2cc(OCc3nnc(Nc4ccc(OC(F)(F)F)c(Cl)c4)o3)ccc2[nH]1 [Example 74]
< 200	O=C1CCc2cc(CCc3nnc(Nc4ccc(Cl)c(Cl)c4)o3)ccc2N1 [Example 131]
201 to 1000	O=c1ccc2cc(OCc3nnc(Nc4ccc(F)c(Cl)c4)o3)ccc2[nH]1 [Example 96]
1000 to 10000	O=c1ccc2cc(OCc3nnc(Nc4ccc(F)cc4)o3)ccc2[nH]1 [Example 40]
> 10000	Clc1ccc(CNc2nnc(COc3ccc4c(c3)CCCN4)o2)cc1Cl [Example 120]
< 200	O=c1ccc2cc(OCc3nnc(Nc4ccc(OC(F)(F)F)cc4)s3)ccc2[nH]1 [Example 245]
< 200	Cc1ccc(Nc2nnc(COc3ccc4[nH]c(=O)ccc4c3)o2)cc1F [Example 102]
1000 to 10000	Oc1ccc(OCc2nnc(Nc3ccc(Cl)c(Cl)c3)o2)nn1 [Example 118]
< 200	O=c1ccc2cc(OCc3nnc(Nc4ccc(C(F)(F)F)c(Cl)c4)o3)ccc2[nH]1 [Example 73]
< 200	O=C1Nc2ccc(OCc3nnc(Nc4ccc(Cl)c(Cl)c4)o3)cc2CO1 [Example 111]
201 to 1000	O=c1ccc2cc(OCc3nnc(Nc4cccc(C(F)(F)F)c4)o3)ccc2[nH]1 [Example 42]
1000 to 10000	FC(F)Oc1ccc(Nc2noc(CCc3cccc4[nH]ncc34)n2)cc1Cl [Example 231]
201 to 1000	O=c1ccc2cc(CCc3nc(Nc4ccc(Cl)c(Cl)c4)no3)ccc2[nH]1 [Example 204]
201 to 1000	O=C1COc2cc(OCc3nnc(Nc4ccc(OC(F)(F)F)cc4)o3)ccc2N1 [Example 126]
201 to 1000	O=c1ccc2cc(OCc3nnc(NCc4ccc(Cl)c(Cl)c4)s3)ccc2[nH]1 [Example 249]
> 10000	FC(F)(F)c1ccc(Nc2noc(COc3ccc4[nH]ncc4c3)n2)cc1 [Example 188]
201 to 1000	O=c1ccc2cc(OCc3nnc(NCc4cccc(Cl)c4)o3)ccc2[nH]1 [Example 77]
> 10000	O=c1ccc2cc(OCc3nnc(Nc4ccc(Cl)cc4Cl)o3)ccc2[nH]1 [Example 56]
201 to 1000	O=C1CCc2cc(OCc3nnc(Nc4ccc(OC(F)(F)F)cc4)o3)ccc2N1 [Example 14]

IC50 [nM]	SMILES
< 200	O=c1ccc2cc(OCc3nnc(NCc4ccc(C(F)(F)F)cc4)o3)ccc2[nH]1 [Example 76]
< 200	O=c1ccc2cc(OCc3cc(Nc4ccc(OC(F)F)cc4)no3)ccc2[nH]1 [Example 260]
< 200	O=C1Cc2cc(OCc3nnc(NCc4ccc(Cl)c(Cl)c4)o3)ccc2N1 [Example 9]
1000 to 10000	Oc1ccc(OCc2nc(Nc3ccc(Cl)c(Cl)c3)no2)cc1 [Example 184]
> 10000	O=C1CCc2cc(OCc3nnc(Nc4ccc(Cl)cn4)o3)ccc2N1 [Example 15]
201 to 1000	O=c1ccc2cc(OCc3nc(Nc4ccc(Cl)c(Cl)c4)no3)ccc2[nH]1 [Example 178]
< 200	Oc1ccc(CCc2nnc(Nc3ccc(Cl)c(Cl)c3)o2)cc1 [Example 151]
< 200	Oc1ccc(CCc2nnc(Nc3ccc(OC(F)(F)F)cc3)o2)cc1 [Example 153]
1000 to 10000	O=c1ccc2cc(OCc3nc(Nc4cc(Cl)cc(Cl)c4)no3)ccc2[nH]1 [Example 164]
> 10000	FC(F)(F)Oc1ccc(Nc2noc(CCc3ccc4[nH]nc(C(F)(F)F)c4c3)n2)cc1 [Example 195]
> 10000	CCOC(=O)Nc1ccc(OCc2nnc(Nc3ccc(Cl)c(Cl)c3)o2)cc1 [Example 31]
< 200	CCn1c(COc2ccc3[nH]c(=O)ccc3c2)nnc1Nc1ccc(OC(F)F)cc1 [Example 281]
201 to 1000	O=C1COc2cc(OCc3nnc(NCc4ccc(Cl)c(Cl)c4)o3)ccc2N1 [Example 127]
1000 to 10000	CCc1ccc(Nc2cc(COc3ccc4[nH]ncc4c3)on2)cc1 [Example 273]
< 200	O=C1CCc2cc(OCc3nnc(Nc4ccc(C(F)(F)F)cc4)s3)ccc2N1 [Example 242]
201 to 1000	Oc1ccc(CCc2nc(Nc3ccc(OC(F)F)cc3)no2)cc1 [Example 226]
1000 to 10000	O=c1ccc2cc(OCc3cc(Nc4ccc(Cl)c(C(F)(F)F)c4)no3)ccc2[nH]1 [Example 263]
< 200	CS(=O)(=O)Nc1ccc(OCc2nnc(Nc3ccc(Cl)c(Cl)c3)o2)cc1 [Example 29]
> 10000	Oc1ccc(OCc2nnc(NCc3ccc(Cl)c(Cl)c3)o2)nn1 [Example 117]
< 200	Cn1c(COc2ccc3[nH]c(=O)ccc3c2)nnc1Nc1ccc(OC(F)(F)F)cc1 [Example 279]

IC50 [nM]	SMILES
201 to 1000	Fc1ccc(Nc2noc(CCc3ccc4[nH]ncc4c3)n2)cc1C(F)F [Example 216]
1000 to 10000	Fc1cc(Nc2noc(CCc3cccc4[nH]ncc34)n2)ccc1Cl [Example 228]
201 to 1000	O=C1CCc2cc(OCc3nnc(NCc4ccc(Cl)c(Cl)c4)s3)ccc2N1 [Example 248]
< 200	O=c1ccc2cc(CCc3nnc(Nc4ccc(C(F)(F)F)cc4)o3)ccc2[nH]1 [Example 138]
1000 to 10000	O=C1CCc2cc(OCc3nc(Nc4ccc(Cl)cc4)no3)ccc2N1 [Example 182]
1000 to 10000	O=C1CCc2cc(OCc3nc(Nc4ccc(C(F)(F)F)cc4)no3)ccc2N1 [Example 180]
< 200	O=C1CCc2cc(OCc3nnc(NCc4ccc(OC(F)F)cc4)o3)ccc2N1 [Example 28]
< 200	CC(C)c1ccc(Nc2nnc(COc3ccc4[nH]c(=O)ccc4c3)o2)cc1 [Example 52]
> 10000	O=c1ccc2cc(OCc3nc(Nc4ccc(C(F)(F)F)c(F)c4)no3)ccc2[nH]1 [Example 157]
< 200	Fc1cc(Nc2noc(CCc3ccc4[nH]ncc4c3)n2)ccc1OC(F)F [Example 210]
< 200	O=c1ccc2cc(CCc3nnc(Nc4ccc(Cl)c(Cl)c4)o3)ccc2[nH]1 [Example 136]
201 to 1000	Cc1cccc(CNc2nnc(COc3ccc4[nH]c(=O)ccc4c3)o2)c1 [Example 94]
< 200	O=c1ccc2cc(OCc3nnc(Nc4ccc(Cl)c(C(F)(F)F)c4)o3)ccc2[nH]1 [Example 51]
201 to 1000	Oc1ccc(CCc2nc(Nc3ccc(Cl)cc3)no2)cc1 [Example 225]
1000 to 10000	Clc1ccc(Nc2nnc(CCCc3ccc4[nH]ncc4c3)o2)cc1Cl [Example 145]
< 200	O=C1CCc2cc(OCc3nnc(Nc4ccc(OC(F)(F)F)cc4)s3)ccc2N1 [Example 247]
< 200	CC(Oc1ccc2[nH]c(=O)ccc2c1)c1nnc(Nc2ccc(Cl)c(Cl)c2)o1 (stereo not shown) [Example 106]
1000 to 10000	Cc1ccc(Nc2noc(COc3ccc4[nH]c(=O)ccc4c3)n2)cc1 [Example 165]
> 10000	Oc1cccc(Cc2nnc(NCc3ccc(Cl)c(Cl)c3)o2)c1 [Example 148]

same assay, conditions: voltage clamp -40 mV, 50 μM glutamate, 30 μM glycine, read-out: hNR2B IC50

IC50 [nM]	SMILES
470	FC(F)Oc1ccc(Nc2noc(CCc3ccc4[nH]ncc4c3)n2)cc1 [Example 201]
104	Cn1c(CCc2ccc3[nH]ncc3c2)nnc1Nc1ccc(OC(F)F)cc1 [Example 277, 5-(2-(1H-indazol-5-yl)ethyl)-N-(4-(difluoromethoxy)phenyl)-4-methyl-4H-1,2,4-triazol-3-amine]
30	O=c1ccc2cc(OCc3nnc(Nc4ccc(C(F)(F)F)cc4)s3)ccc2[nH]1 [Example 241]
884	O=c1ccc2cc(OCc3nnc(Nc4ccc(Cl)cc4F)o3)ccc2[nH]1 [Example 35]
2120	CCOC(=O)Nc1ccc(OCc2nnc(NCc3ccc(Cl)c(Cl)c3)o2)cc1 [Example 32]
4040	O=c1ccc2cc(OCc3nnc(Nc4cc(Cl)cc(Cl)c4)o3)ccc2[nH]1 [Example 53]
3000	O=C1CCc2cc(OCc3nnc(-c4ccc(Cl)cc4)[nH]3)ccc2N1 [Example 286, 6-((5-(4-chlorophenyl)-4H-1,2,4-triazol-3-yl)methoxy)-3,4-dihydroquinolin-2(1H)-one]
24000	O=C1CCc2cc(OCc3csc(Nc4ccc(Cl)c(Cl)c4)n3)ccc2N1 [Example 252, 6-((2-(3,4-dichlorophenylamino)thiazol-4-yl)methoxy)-3,4-dihydroquinolin-2(1H)-one]
3800	O=C1CCc2cc(OCc3nc(Cc4ccc(Cl)cc4)no3)ccc2N1 [Example 287, 6-((3-(4-chlorobenzyl)-1,2,4-oxadiazol-5-yl)methoxy)-3,4-dihydroquinolin-2(1H)-one]
19	CS(=O)(=O)Nc1ccc(OCc2nnc(NCc3ccc(Cl)c(Cl)c3)o2)cc1 [Example 30]
3600	O=C1CCc2cc(OCc3noc(Nc4ccc(Cl)c(Cl)c4)n3)ccc2N1 [Example 239, 6-((5-((3,4-dichlorophenyl)amino)-1,2,4-oxadiazol-3-yl)methoxy)-3,4-dihydroquinolin-2(1H)-one]
320	Oc1ccc(CCc2nc(NCc3ccc(Cl)cc3)no2)cc1 [Example 200]
7300	CC(C)OC(=O)Nc1ccc(OCc2nnc(Nc3ccc(Cl)c(Cl)c3)o2)cc1 [Example 3, Isopropyl 4-((5-(3,4-dichlorophenylamino)-1,3,4-oxadiazol-2-yl)methoxy)phenyl carbamate]
10	O=c1ccc2cc(OCc3cc(Nc4ccc(Cl)c(F)c4)no3)ccc2[nH]1 [Example 257]
542	O=c1ccc2cc(OCc3nnc(Nc4ccc(Cl)c(OC(F)(F)F)c4)o3)ccc2[nH]1 [Example 55]
48	Oc1ccc(CCc2nnc(Nc3ccc(C(F)(F)F)cc3)o2)cc1 [Example 152]
19	Cc1ccc(Nc2noc(CCc3ccc4[nH]ncc4c3)n2)cc1F [Example 209]
168	O=c1ccc2cc(OCc3nc(Nc4ccc(OC(F)F)cc4)no3)ccc2[nH]1 [Example 190]
193	O=c1ccc2cc(OCc3cc(Nc4ccc(Cl)c(Cl)c4)no3)ccc2[nH]1 [Example 254]
> 10000	O=C1CCc2cc(CCc3nc(Nc4ccc(Cl)c(Cl)c4)no3)ccc2N1 [Example 194, 6-(2-(3-(3,4-dichlorophenylamino)-1,2,4-oxadiazol-5-yl)ethyl)-3,4-dihydroquinolin-2(1H)-one]
